The values below come from article PMC9291665, “Discovery and SAR analysis of 5-chloro-4-((substituted phenyl)amino)pyrimidine bearing histone deacetylase inhibitors” (Journal of Enzyme Inhibition and Medicinal Chemistry, 2022).

The test system of test [1] is Hela nucleus extract containing a mixture of HDAC isoforms. Description: HDAC enzyme inhibitory screening against Hela nucleus extract. The test is classed as biochemical. Conditions: at concentration of 1.0 µM, mean of three experiments. As to the method: The synthesised molecules were firstly screened against Hela nucleus extract containing a mixture of HDAC isoforms.
(§1) All HDAC enzymes were purchased from BPS Bioscience. In short, 60 µL of recombinant HDAC enzyme solution was mixed with various concentrations of test compound (40 µL), and then incubated at 37 °C for 30 minutes. The reaction was terminated by adding 100 µL of imaging agent containing trypsin and trichostatin A (TSA). After standing for 20 min, the fluorescence intensity was measured at the excitation and emission wavelengths of 360 and 460 nm with a microplate reader. The inhibition rate was calculated from the fluorescence intensity readings of the test wells relative to the control wells, and the IC50 curve and value were determined by GraphPad Prism 6.0 software.

Test [2] has as its system K562 cells. Briefly: In vitro antiproliferative assay (CCK-8), K562. The test is classed as cell-based. Conditions: Homo sapiens. The procedure:
(§2) The proliferation of cancer cells was tested by CCK-8 assay. Briefly, cells were seeded in 96-well plate with about 5 × 10^3 cells in each well. The cells were treated with tested compounds after 24 h of incubation. CCK-8 reagent ([…]) was added to each well after 72 h of incubation, and cells were incubated at 37 °C for 4 h. The light absorbance at 450 nm was measured by using an Opsys microplate reader (Dynex Technologies, Chantilly, VA, USA).

For test [3], the target named is T1, HDAC1 (Homo sapiens, UniProt Q13547).
T1 construct: purchased BPS Bioscience
Briefly: HDAC enzyme inhibitory selectivity test, HDAC1. The test is classed as biochemical. As to the method:
(§3) Therefore, molecule L20 was evaluated in the HDAC enzyme inhibitory selectivity test against HDAC1, 2, 3 and 6 (Table 2).
as §1

Test [4] deals with T2, HDAC2 (Homo sapiens, UniProt Q92769).
T2 construct: purchased BPS Bioscience
Briefly: HDAC enzyme inhibitory selectivity test, HDAC2. The test is classed as biochemical. As to the method: as §3, §1

The target of test [5] is T3, HDAC3 (Homo sapiens, UniProt O15379).
T3 construct: purchased BPS Bioscience
Briefly: HDAC enzyme inhibitory selectivity test, HDAC3. Type of test: biochemical. The procedure: as §3, §1

Test [6] has as its target T4, HDAC6 (Homo sapiens, UniProt Q9UBN7).
T4 construct: purchased BPS Bioscience
T4 sequence (Q9UBN7 1-1215): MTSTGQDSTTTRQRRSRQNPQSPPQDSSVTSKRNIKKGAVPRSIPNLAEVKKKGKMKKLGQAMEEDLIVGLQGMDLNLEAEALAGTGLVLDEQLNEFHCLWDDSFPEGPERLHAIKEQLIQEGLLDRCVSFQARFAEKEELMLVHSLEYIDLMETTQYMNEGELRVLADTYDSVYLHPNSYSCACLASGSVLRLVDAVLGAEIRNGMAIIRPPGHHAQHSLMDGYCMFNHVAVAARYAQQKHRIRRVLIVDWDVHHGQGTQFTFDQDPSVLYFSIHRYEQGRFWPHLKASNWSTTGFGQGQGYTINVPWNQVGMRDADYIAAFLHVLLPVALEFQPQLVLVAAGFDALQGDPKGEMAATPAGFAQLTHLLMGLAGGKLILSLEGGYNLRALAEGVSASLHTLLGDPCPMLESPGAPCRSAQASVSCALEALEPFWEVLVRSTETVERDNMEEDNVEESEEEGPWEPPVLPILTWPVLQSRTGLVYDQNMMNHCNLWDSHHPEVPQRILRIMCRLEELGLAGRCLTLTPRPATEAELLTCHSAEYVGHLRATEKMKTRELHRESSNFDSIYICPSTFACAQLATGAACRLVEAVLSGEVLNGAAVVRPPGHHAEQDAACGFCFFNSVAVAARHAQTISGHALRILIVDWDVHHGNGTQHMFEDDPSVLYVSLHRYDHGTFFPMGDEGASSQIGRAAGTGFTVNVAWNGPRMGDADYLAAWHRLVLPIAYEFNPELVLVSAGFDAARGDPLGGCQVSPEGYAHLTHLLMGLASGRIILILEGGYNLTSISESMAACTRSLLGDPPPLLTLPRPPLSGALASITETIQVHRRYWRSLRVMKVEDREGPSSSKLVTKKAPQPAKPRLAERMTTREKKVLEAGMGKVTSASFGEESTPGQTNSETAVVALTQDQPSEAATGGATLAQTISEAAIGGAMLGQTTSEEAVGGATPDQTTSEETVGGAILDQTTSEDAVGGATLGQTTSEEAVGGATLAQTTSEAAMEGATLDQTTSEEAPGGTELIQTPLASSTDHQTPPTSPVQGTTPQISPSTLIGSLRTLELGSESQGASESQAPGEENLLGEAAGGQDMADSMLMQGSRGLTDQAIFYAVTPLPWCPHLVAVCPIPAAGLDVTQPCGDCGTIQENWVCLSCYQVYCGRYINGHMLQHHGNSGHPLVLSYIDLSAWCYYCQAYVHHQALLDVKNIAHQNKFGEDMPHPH
Briefly: HDAC enzyme inhibitory selectivity test, HDAC6. The test is classed as biochemical. Conditions: mean of three experiments. The procedure: as §3, §1

Test [7] concerns U266. Briefly: In vitro antiproliferative assay (CCK-8), U266. Type of test: cell-based. Conditions: Homo sapiens, U-266, CCK-8, 72 h. As to the method:
as §2

The test system of test [8] is U937. Description: In vitro antiproliferative assay (CCK-8), U937. Type of test: cell-based. The conditions noted are these: Homo sapiens, U-937, CCK-8, 72 h. The procedure: as §2
Test [9] has as its system C6. Description: In vitro antiproliferative assay (CCK-8), C6. Type of test: cell-based. Conditions: Rattus norvegicus, CCK-8, 72 h. The procedure:
as §2

Test [10] has as its system Fadu. Description: In vitro antiproliferative assay (CCK-8), Fadu. Type of test: cell-based. The conditions noted are these: Homo sapiens, CCK-8, 72 h. As to the method:
as §2

The test system of test [11] is MDA-MB-231. Description: In vitro antiproliferative assay (CCK-8), MDA-MB-231. Type of test: cell-based. Conditions: Homo sapiens, CCK-8, 72 h. The procedure:
(§4) Compound L20 with good performances in both enzyme and K562 cell inhibitory tests were selected for further antiproliferative assay against various cell lines. K562, U266, U937, C6, Fadu, MDA-MB-231, MDA-MB-468, A549, A2780 and HepG2 cell lines were used in the cell-based anticancer evaluation of L20.
(§5) The proliferation of cancer cells was tested by CCK-8 assay. Briefly, cells were seeded in 96-well plate with about 5 × 10^3 cells in each well. The cells were treated with tested compounds after 24 h of incubation. CCK-8 reagent ([…]) was added to each well after 72 h of incubation, and cells were incubated at 37 °C for 4 h. The light absorbance at 450 nm was measured by using an Opsys microplate reader (Dynex Technologies, Chantilly, VA, USA). Results are illustrated as percent of cell viability normalised to DMSO-treated control cells.

Test [12] concerns MDA-MB-468. Briefly: In vitro antiproliferative assay (CCK-8), MDA-MB-468. Type of test: cell-based. Conditions: Homo sapiens, CCK-8, 72 h. As to the method: as §4, §5
Test [13] has as its system A549. Briefly: In vitro antiproliferative assay (CCK-8), A549. The test is classed as cell-based. Conditions: Homo sapiens, CCK-8, 72 h. The procedure:
as §2

Test [14] concerns A2780. Briefly: In vitro antiproliferative assay (CCK-8), A2780. Conditions: Homo sapiens, CCK-8, 72 h. The test is classed as cell-based. As to the method:
as §2

Test [15] relates to HepG2. Briefly: In vitro antiproliferative assay (CCK-8), HepG2. Type of test: cell-based. Conditions: Homo sapiens, CCK-8, 72 h. As to the method:
as §2

The test system of test [16] is K562 cells. Briefly: Cell cycle analysis by flow cytometry (PI). The conditions noted are these: 24 h, first peak in Figure 5.
Protocol: After treatment, cells were collected and fixed with 70% pre-cold ethanol in PBS and stored at −20 °C overnight. Then washed the cells with PBS twice, and incubated with 100 µg/mL RNase I (Solarbio, China) at 37 °C for 1 h, stained with propidium iodide (PI, 10 µg/mL, Solarbio, China) for 30 min avoid light at room temperature. Finally, DNA content was measured by flow cytometry (FACSAriaIII, Becton Dickinson, USA). The data were analysed and fitted by ModFit software.
The test system of test [17] is K562 cells. Description: Cell apoptosis analysis by flow cytometry (Annexin V-BV421 / 7-AAD). The conditions noted are these: 24 h, control 1.14%. (In general: In flow cytometry, cells or beads pass a laser one at a time.)
Protocol: Cells were incubated with Annexin V-BV421 (Becton Dickinson, USA) and 7-AAD (Becton Dickinson, USA) double labelling for 30 min in the dark at room temperature and measured by flow cytometry (FACSAriaIII, Becton Dickinson, USA). The data was analysed using Flowjo-V10 software.

T2 sequence (Q92769 whole entry): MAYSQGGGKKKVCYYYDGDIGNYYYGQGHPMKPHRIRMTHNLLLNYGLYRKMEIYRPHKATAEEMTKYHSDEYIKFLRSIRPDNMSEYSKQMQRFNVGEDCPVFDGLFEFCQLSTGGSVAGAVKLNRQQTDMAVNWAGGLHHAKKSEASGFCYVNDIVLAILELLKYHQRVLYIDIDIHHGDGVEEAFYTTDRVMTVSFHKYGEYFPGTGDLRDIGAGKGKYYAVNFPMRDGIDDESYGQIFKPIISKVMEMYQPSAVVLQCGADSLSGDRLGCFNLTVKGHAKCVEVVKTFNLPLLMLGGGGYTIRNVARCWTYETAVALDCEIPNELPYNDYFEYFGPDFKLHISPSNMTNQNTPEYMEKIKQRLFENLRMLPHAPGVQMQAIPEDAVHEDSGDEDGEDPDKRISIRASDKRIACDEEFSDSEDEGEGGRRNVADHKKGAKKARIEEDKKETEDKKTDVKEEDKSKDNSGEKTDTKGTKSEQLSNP
T3 sequence (O15379 whole entry): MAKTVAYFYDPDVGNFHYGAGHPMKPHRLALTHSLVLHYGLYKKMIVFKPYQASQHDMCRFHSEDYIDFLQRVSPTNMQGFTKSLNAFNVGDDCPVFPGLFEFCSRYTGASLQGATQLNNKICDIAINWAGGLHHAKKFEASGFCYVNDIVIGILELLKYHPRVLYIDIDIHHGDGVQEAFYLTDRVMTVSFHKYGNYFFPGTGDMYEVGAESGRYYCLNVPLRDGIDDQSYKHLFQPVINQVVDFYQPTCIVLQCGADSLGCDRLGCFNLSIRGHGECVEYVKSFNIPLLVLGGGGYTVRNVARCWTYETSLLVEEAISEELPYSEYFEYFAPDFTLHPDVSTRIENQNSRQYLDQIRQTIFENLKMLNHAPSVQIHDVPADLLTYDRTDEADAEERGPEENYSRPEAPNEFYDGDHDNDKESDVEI
T3 sequence (Q9Y618 395-489 partner limits assumed): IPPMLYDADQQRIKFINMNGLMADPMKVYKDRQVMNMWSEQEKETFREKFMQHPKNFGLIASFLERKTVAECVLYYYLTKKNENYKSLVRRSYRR
T1 sequence (Q13547 whole entry): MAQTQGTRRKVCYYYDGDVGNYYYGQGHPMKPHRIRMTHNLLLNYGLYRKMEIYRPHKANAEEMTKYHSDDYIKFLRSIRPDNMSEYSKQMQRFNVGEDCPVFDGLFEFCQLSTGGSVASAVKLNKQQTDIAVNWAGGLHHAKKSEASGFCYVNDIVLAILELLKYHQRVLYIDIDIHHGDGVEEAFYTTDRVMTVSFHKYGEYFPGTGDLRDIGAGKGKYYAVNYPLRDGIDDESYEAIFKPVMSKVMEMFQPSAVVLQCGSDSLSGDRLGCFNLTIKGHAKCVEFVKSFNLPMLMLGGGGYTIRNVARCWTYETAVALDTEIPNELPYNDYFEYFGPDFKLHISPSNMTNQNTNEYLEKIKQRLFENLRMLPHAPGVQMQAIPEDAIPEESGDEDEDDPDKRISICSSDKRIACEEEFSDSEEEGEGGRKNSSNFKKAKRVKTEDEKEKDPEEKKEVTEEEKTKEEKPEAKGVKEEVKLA

Usually IC50 stands for the midpoint of a concentration-inhibition curve. Low values mean higher potency, high ones lower potency. As to `COc1cc(Nc2nc(N3CCN(c4ncc(C(=O)NO)cn4)CC3)ncc2Cl)cc(OC)c1` [Compound L20, 2–(4-(5-chloro-4-((3,5-dimethoxyphenyl)amino)pyrimidin-2-yl)piperazin-1-yl)-N-hydroxypyrimidine-5-carboxamide], the “HDACs percentage inhibitory rate” value in test [1] was found to be 72.52 ± 1.26%. Also, the IC50 in test [2] (CCK-8, 72 h) was 0.34 ± 0.02 µM; in test [3] (mean of three experiments), 0.684 ± 0.016 µM; in test [4] (mean of three experiments) it was 2.55 ± 0.079 µM; in [5] (mean of three experiments) it was 0.217 ± 0.008 µM; in test [6], > 1000 µM; in [7] it was 0.28 ± 0.01 µM. The IC50 in test [8] was determined as 0.76 ± 0.03 µM; in test [9], 1.98 ± 0.1 µM; in test [10] it was 1.42 ± 0.05 µM; in [11], 1.63 ± 0.06 µM; in test [12], 2.23 ± 0.09 µM; in [13], 1.06 ± 0.03 µM. Also, the values for the IC50 in [14] and in test [15] were 0.97 ± 0.02 µM and 3.17 ± 0.15 µM, respectively. In test [2] (at concentration of 1.0 µM, mean of three experiments, read-out: K562 percentage inhibitory rate), the inhibition at 1 µM came to 74.2 ± 1.18%. The “selectivity index HDAC1 compared with HDAC6” value in test [3] (HDAC1 vs HDAC6) is recorded as > 1462. Besides, the “selectivity index HDAC2 compared with HDAC6” value in test [4] (HDAC2 vs HDAC6) is reported as > 392. Further, the “selectivity index HDAC3 compared with HDAC6” value in [5] (HDAC3 vs HDAC6) was > 4608. In addition, the “G0/G1 phase ratio of K562 cells” value in [16] (1 µM) is 19.34%; in test [16] (2 µM), 44.85%. Also, the “apoptotic rate of K562 cells” value turned out to be 2.51% in [17] (1 µM), 11.87% in test [17] (2 µM) and 17.60% in test [17] (4 µM).
